Source: US20250066363A1, “Bicyclic DGK Inhibitors” (Incyte Corporation, priority 2023, published 2025)
pIC50: −log10 of the molar value.

Columns and labels:
DGKα = DGKα (Homo sapiens (Human), UniProt P23743); assay: In vitro DGKα inhibition assay (ADP-Glo); type: biochemical; details: first column of Table A; His-tagged human recombinant DGKα 0.1 nM, 50 μM ATP, 20 μM DLG
Experimental: (§1) The DGKα and DGKζ biochemical reactions were performed using His-tagged human recombinant enzymes (Signal Chem, DGKα, #D21-10BH; DGKζ, #D30-1OH)) and DLG (Dilauroyl-sn-glycerol) lipid substrate (Signal Chem, #D430-59). ADP-Glo assay was performed using ADP-Glo™ kinase Assay kit (Promega, #V9104). The reactions were carried out in assay buffer containing 40 mM Tris, pH 7.5, 0.1% CHAPS, 0.1% Prionex, 40 mM NaCl, 5 mM MgCl2, 1 mM CaCl2, and 1 mM DTT. DGKα reactions contained 0.1 nM DGKα, 50 μM ATP, and 20 μM DLG. And DGKζ reactions contained 0.4 nM DGKζ, 30 μM ATP, and 20 μM DLG.
(§2) For compound inhibition studies, 40 nL test compound in DMSO was added to wells of white polystyrene plates in 384-well (Greiner, #784075) or 1536-well format (Greiner, #782075). Compounds were added with top concentration of 2 mM with 11 point, 3-fold dilution series. Enzyme solution (contains 2× DGK enzyme concentration in 1× assay buffer) was added to the plate in 2 μL/well volume, followed by 2 μL/well of substrate solution (contains 2× concentration of ATP and DLG substrate in 1× assay buffer). Plates were then centrifuged for 1 min at 1200 RPM and sealed or lidded. For 4 μL reaction volume, test compounds were therefore diluted 100× to final top concentration of 20 μM. After 90 minute incubation, reactions were quenched by addition of 2 μL/well Promega ADP-Glo Reagent, followed by centrifugation and lidding. After 60 min incubation, 2 μL/well Promega Kinase Detection Reagent was added, plates centrifuged, and incubated for 30 min. Plates were then read using Luminescence method on BMG PHERAstar FSX plate reader. Percent inhibition was calculated and IC50s were determined using 4-parameter fit in Genedata Screener. Labcyte Echo acoustic dispenser was used for compound addition, and Formulatrix Tempest liquid handler was used for all reagent dispenses.

DGKζ = DGKζ (Homo sapiens (Human), UniProt Q13574); assay: In vitro DGKζ inhibition assay (ADP-Glo); type: biochemical; details: second column of Table A, head printed DGKα, presumably DGKζ; His-tagged human recombinant DGKζ 0.4 nM, 30 μM ATP, 20 μM DLG
Experimental: as §1, §2

Chain of DGKζ (Q13574 whole entry): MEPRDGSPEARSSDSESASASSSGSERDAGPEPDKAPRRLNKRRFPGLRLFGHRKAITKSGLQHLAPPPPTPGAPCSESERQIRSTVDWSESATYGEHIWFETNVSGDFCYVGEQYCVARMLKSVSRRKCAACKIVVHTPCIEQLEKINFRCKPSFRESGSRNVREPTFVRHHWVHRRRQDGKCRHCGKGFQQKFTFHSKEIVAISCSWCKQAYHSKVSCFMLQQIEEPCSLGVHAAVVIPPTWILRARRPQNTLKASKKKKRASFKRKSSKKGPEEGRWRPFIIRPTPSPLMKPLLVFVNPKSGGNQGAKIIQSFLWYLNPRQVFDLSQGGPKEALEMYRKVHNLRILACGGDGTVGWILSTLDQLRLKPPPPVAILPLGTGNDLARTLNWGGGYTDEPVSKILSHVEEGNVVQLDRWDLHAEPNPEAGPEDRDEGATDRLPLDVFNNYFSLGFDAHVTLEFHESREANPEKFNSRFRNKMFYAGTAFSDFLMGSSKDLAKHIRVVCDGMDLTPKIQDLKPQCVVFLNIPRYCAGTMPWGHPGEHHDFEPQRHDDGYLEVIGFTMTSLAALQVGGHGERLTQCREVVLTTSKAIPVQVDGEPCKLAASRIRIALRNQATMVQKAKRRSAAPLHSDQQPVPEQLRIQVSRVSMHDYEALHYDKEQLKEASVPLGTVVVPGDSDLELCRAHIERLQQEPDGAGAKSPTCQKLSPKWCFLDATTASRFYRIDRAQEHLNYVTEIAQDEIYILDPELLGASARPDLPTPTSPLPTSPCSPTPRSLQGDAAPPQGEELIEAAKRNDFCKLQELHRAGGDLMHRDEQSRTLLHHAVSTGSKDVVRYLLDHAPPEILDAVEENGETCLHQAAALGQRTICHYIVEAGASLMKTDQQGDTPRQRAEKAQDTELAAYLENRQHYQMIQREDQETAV
Chain of DGKα (P23743 whole entry): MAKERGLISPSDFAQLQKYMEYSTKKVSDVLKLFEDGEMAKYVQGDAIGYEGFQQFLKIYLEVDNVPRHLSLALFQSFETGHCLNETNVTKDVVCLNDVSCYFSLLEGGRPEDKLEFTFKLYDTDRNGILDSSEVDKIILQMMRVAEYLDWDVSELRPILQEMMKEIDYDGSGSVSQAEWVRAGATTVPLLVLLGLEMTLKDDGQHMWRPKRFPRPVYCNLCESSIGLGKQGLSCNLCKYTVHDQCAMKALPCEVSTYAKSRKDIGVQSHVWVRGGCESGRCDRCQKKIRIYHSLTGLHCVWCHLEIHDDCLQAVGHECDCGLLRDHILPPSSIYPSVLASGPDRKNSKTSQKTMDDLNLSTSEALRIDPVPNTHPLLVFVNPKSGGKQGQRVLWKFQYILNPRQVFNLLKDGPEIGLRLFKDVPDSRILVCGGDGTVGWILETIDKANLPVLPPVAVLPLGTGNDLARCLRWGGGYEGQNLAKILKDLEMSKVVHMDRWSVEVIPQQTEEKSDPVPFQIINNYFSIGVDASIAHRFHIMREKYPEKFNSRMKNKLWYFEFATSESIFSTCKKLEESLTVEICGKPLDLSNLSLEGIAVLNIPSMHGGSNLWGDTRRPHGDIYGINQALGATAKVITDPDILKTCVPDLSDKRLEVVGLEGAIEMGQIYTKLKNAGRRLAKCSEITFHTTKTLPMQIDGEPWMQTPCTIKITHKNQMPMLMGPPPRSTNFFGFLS

SMILES: C[C@@H]1CN(c2nc(=O)n(C)c3c2nnn3C[C@H]2CCCO2)[C@@H](C)CN1C(c1ccc(F)cc1)c1ccc(F)cc1 [Example 13, 7-((2S,5R)-4-(Bis(4-fluorophenyl)methyl)-2,5-dimethylpiperazin-1-yl)-4-methyl-3-(((R)-tetrahydrofuran-2-yl)methyl)-3,4-dihydro-5H-[1,2,3]triazolo[4,5-d]pyrimidin-5-one]
- pIC50 (DGKα): ≥ 8.00
- pIC50 (DGKζ): ≥ 8.00

SMILES: CC(C)CC(c1ccc(Cl)cc1)N1C[C@H](C)N(c2nc(=O)n(C)c3c2nnn3C[C@H]2CCCO2)C[C@H]1C (single isomer, unassigned) [Example 18]
- pIC50 (DGKα): ≥ 8.00
- pIC50 (DGKζ): ≥ 8.00

SMILES: Cc1nc2c(N3C[C@@H](C)N(C(c4ccc(C(F)(F)F)cc4)C4CC(F)(F)C4)C[C@@H]3C)nc(=O)n(C)c2n1C[C@H]1OCC[C@@H]1O (single isomer, unassigned) [Example 34]
- pIC50 (DGKα): ≥ 8.00
- pIC50 (DGKζ): ≥ 8.00

SMILES: CC[C@@H]1CN(c2nc(=O)n(C)c3c2nc(C)n3C[C@@H]2CCCO2)[C@@H](C)CN1C(c1ccc(Cl)cc1)C1CC(F)(F)C1 (stereo partly drawn) [Example 37, 6-((2S,5R)-4-((4-Chlorophenyl)(3,3-difluorocyclobutyl)methyl)-5-ethyl-2-methylpiperazin-1-yl)-3,8-dimethyl-9-(((S)-tetrahydrofuran-2-yl)methyl)-3,9-dihydro-2H-purin-2-one]
- pIC50 (DGKα): ≥ 8.00
- pIC50 (DGKζ): ≥ 8.00

SMILES: Cc1nc2c(N3C[C@@H](C)N([C@H](c4ccc(C(F)F)c(F)c4)C(C)C)C[C@@H]3C)nc(=O)n(C)c2n1C[C@@H]1CCCO1 [Example 55, 6-((2S,5R)-4-((S)-1-(4-(Difluoromethyl)-3-fluorophenyl)-2-methylpropyl)-2,5-dimethylpiperazin-1-yl)-3,8-dimethyl-9-(((S)-tetrahydrofuran-2-yl)methyl)-3,9-dihydro-2H-purin-2-one]
- pIC50 (DGKα): ≥ 8.00
- pIC50 (DGKζ): ≥ 8.00

SMILES: C[C@@H]1CN(c2nc(=O)n(C)c3c2nnn3C[C@@H]2CCCO2)[C@@H](C)CN1C(c1ccc(F)cc1)c1ccc(F)cc1 [Example 12, 7-((2S,5R)-4-(Bis(4-fluorophenyl)methyl)-2,5-dimethylpiperazin-1-yl)-4-methyl-3-(((S)-tetrahydrofuran-2-yl)methyl)-3,4-dihydro-5H-[1,2,3]triazolo[4,5-d]pyrimidin-5-one]
- pIC50 (DGKα): ≥ 8.00
- pIC50 (DGKζ): ≥ 8.00

SMILES: CC[C@@H]1CN(c2nc(=O)n(C)c3c2nc(C)n3C[C@H]2OCC[C@@H]2O)[C@@H](C)CN1[C@@H](CC)c1ccc(C(F)(F)F)cc1 [Example 69, 6-((2S,5R)-5-Ethyl-2-methyl-4-((S)-1-(4-(trifluoromethyl)phenyl)propyl)piperazin-1-yl)-9-(((2R,3S)-3-hydroxytetrahydrofuran-2-yl)methyl)-3,8-dimethyl-3,9-dihydro-2H-purin-2-one]
- pIC50 (DGKα): ≥ 8.00
- pIC50 (DGKζ): ≥ 8.00

SMILES: Cc1nc2c(N3C[C@@H](C)N([C@H](c4ccc5cc(F)ccc5n4)C(C)C)C[C@@H]3C)nc(=O)n(C)c2n1C[C@@H]1CCCO1 [Example 47, 6-((2S,5R)-4-((S)-1-(6-Fluoroquinolin-2-yl)-2-methylpropyl)-2,5-dimethylpiperazin-1-yl)-3,8-dimethyl-9-(((S)-tetrahydrofuran-2-yl)methyl)-3,9-dihydro-2H-purin-2-one]
- pIC50 (DGKα): ≥ 8.00
- pIC50 (DGKζ): ≥ 8.00

SMILES: CC[C@@H]1CN(c2nc(=O)n(C)c3c2nc(C)n3C[C@@H]2CCCO2)[C@@H](C)CN1C(c1ccc(F)cc1)c1ccc(F)cc1 [Example 5, 6-((2S,5R)-4-(Bis(4-fluorophenyl)methyl)-5-ethyl-2-methylpiperazin-1-yl)-3,8-dimethyl-9-(((S)-tetrahydrofuran-2-yl)methyl)-3,9-dihydro-2H-purin-2-one]
- pIC50 (DGKα): ≥ 8.00
- pIC50 (DGKζ): ≥ 8.00

SMILES: C[C@@H]1CN(c2nc(=O)n(C)c3c2cnn3C)[C@@H](C)CN1C(c1ccc(F)cc1)c1ccc(F)cc1 [Example 7, 4-((2S,5R)-4-(Bis(4-fluorophenyl)methyl)-2,5-dimethylpiperazin-1-yl)-1,7-dimethyl-1,7-dihydro-6H-pyrazolo[3,4-d]pyrimidin-6-one]
- pIC50 (DGKα): ≥ 8.00
- pIC50 (DGKζ): < 6.00

SMILES: Cc1nc2c(N3C[C@@H](C)N(C(c4ccc(C(F)(F)F)cc4)C4CC(F)(F)C4)C[C@@H]3C)nc(=O)n(C)c2n1C[C@H]1OCC[C@H]1O (single isomer, unassigned) [Example 35]
- pIC50 (DGKα): ≥ 8.00
- pIC50 (DGKζ): ≥ 8.00

SMILES: Cc1nc2c(N3C[C@@H](C)N([C@H](c4ccc(C(F)(F)F)cc4)C(C)C)C[C@@H]3C)nc(=O)n(C)c2n1C[C@@H]1CCCO1 [Example 53, 6-((2S,5R)-2,5-Dimethyl-4-((S)-2-methyl-1-(4-(trifluoromethyl)phenyl)propyl)piperazin-1-yl)-3,8-dimethyl-9-(((S)-tetrahydrofuran-2-yl)methyl)-3,9-dihydro-2H-purin-2-one]
- pIC50 (DGKα): ≥ 7.00
- pIC50 (DGKζ): ≥ 7.00

SMILES: Cc1nc2c(N3C[C@@H](C)N(C(c4ccc(F)cc4)c4ccc(F)cc4)C[C@@H]3C)nc(=O)[nH]c2n1C[C@@H]1CCCO1 [Example 1, 6-((2S,5R)-4-(Bis(4-fluorophenyl)methyl)-2,5-dimethylpiperazin-1-yl)-8-methyl-9-(((S)-tetrahydrofuran-2-yl)methyl)-3,9-dihydro-2H-purin-2-one]
- pIC50 (DGKα): ≥ 8.00
- pIC50 (DGKζ): ≥ 7.00

SMILES: Cc1nc2c(N3C[C@@H](C)N([C@@H](c4ccc(C(F)F)c(F)c4)C(C)C)C[C@@H]3C)nc(=O)n(C)c2n1C[C@@H]1CCCO1 [Example 56, 6-((2S,5R)-4-((R)-1-(4-(difluoromethyl)-3-fluorophenyl)-2-methylpropyl)-2,5-dimethylpiperazin-1-yl)-3,8-dimethyl-9-(((S)-tetrahydrofuran-2-yl)methyl)-3,9-dihydro-2H-purin-2-one]
- pIC50 (DGKα): ≥ 8.00
- pIC50 (DGKζ): ≥ 8.00

SMILES: Cc1nc2c(N3C[C@@H](C)N(C(c4ccc(C(F)(F)F)cc4)C4CC(F)(F)C4)C[C@@H]3C)nc(=O)[nH]c2n1C[C@@H]1CCCO1 (single isomer, unassigned) [Example 14]
- pIC50 (DGKα): ≥ 8.00
- pIC50 (DGKζ): ≥ 7.00

SMILES: CC[C@@H]1CN(c2nc(=O)n(C)c3c2nc(C)n3C[C@H]2OCC[C@@H]2O)[C@@H](C)CN1[C@H](CC)c1ccc(C(F)(F)F)cc1 [Example 70, 6-((2S,5R)-5-ethyl-2-methyl-4-((R)-1-(4-(trifluoromethyl)phenyl)propyl)piperazin-1-yl)-9-(((2R,3S)-3-hydroxytetrahydrofuran-2-yl)methyl)-3,8-dimethyl-3,9-dihydro-2H-purin-2-one]
- pIC50 (DGKα): ≥ 8.00
- pIC50 (DGKζ): ≥ 8.00

SMILES: CC[C@@H]1CN(c2nc(=O)n(C)c3c2nnn3C[C@H]2CCCO2)[C@@H](C)CN1C(c1ccc(Cl)cc1)C1CC(F)(F)C1 (stereo partly drawn) [Example 45, 7-((2S,5R)-4-((4-Chlorophenyl)(3,3-difluorocyclobutyl)methyl)-5-ethyl-2-methylpiperazin-1-yl)-4-methyl-3-(((R)-tetrahydrofuran-2-yl)methyl)-3,4-dihydro-5H-[1,2,3]triazolo[4,5-d]pyrimidin-5-one]
- pIC50 (DGKα): ≥ 8.00
- pIC50 (DGKζ): ≥ 8.00

SMILES: CC[C@@H]1CN(c2nc(=O)n(C)c3c2nnn3C[C@H]2CCCO2)[C@@H](C)CN1C(CC(C)C)c1ccc(Cl)cc1 (single isomer, unassigned) [Example 20]
- pIC50 (DGKα): ≥ 8.00
- pIC50 (DGKζ): ≥ 8.00

SMILES: CC[C@@H]1CN(c2nc(=O)n(C)c3c2nc(C)n3C[C@H]2OCC[C@H]2O)[C@@H](C)CN1[C@@H](CC)c1ccc(C(F)(F)F)cc1 [Example 71, 6-((2S,5R)-5-Ethyl-2-methyl-4-((S)-1-(4-(trifluoromethyl)phenyl)propyl)piperazin-1-yl)-9-(((2R,3R)-3-hydroxytetrahydrofuran-2-yl)methyl)-3,8-dimethyl-3,9-dihydro-2H-purin-2-one]
- pIC50 (DGKα): ≥ 8.00
- pIC50 (DGKζ): ≥ 8.00

SMILES: CC(C)[C@@H](c1ccc(Cl)cc1)N1C[C@H](C)N(c2nc(=O)n(C)c3c2ncn3CC2(O)CCCC2)C[C@H]1C [Example 57, 6-((2S,5R)-4-((S)-1-(4-Chlorophenyl)-2-methylpropyl)-2,5-dimethylpiperazin-1-yl)-9-((1-hydroxycyclopentyl)methyl)-3-methyl-3,9-dihydro-2H-purin-2-on]
- pIC50 (DGKα): ≥ 8.00
- pIC50 (DGKζ): ≥ 8.00

SMILES: Cc1nc2c(N3C[C@@H](C)N(C(CC(C)C)c4ccc(Cl)cc4)C[C@@H]3C)nc(=O)n(C)c2n1C[C@@H]1CCCO1 (stereo partly drawn) [Example 16, 6-((2S,5R)-4-(1-(4-Chlorophenyl)-3-methylbutyl)-2,5-dimethylpiperazin-1-yl)-3,8-dimethyl-9-(((S)-tetrahydrofuran-2-yl)methyl)-3,9-dihydro-2H-purin-2-one]
- pIC50 (DGKα): ≥ 8.00
- pIC50 (DGKζ): ≥ 8.00
